Source: patent US20250057819A1, “DRUG COMBINATIONS FOR INHIBITING CORONAVIRUS REPLICATION” (priority 2021, published 2025)
Where a name gives a salt, the structure may show the parent alone. Read-outs that look alike come from different tables or passages of the source.

Assays:
rHCoVs-OC43 = test: microbe, parasite or virus in culture; format: cell-based
[1] = Cell viability assay (MTT) in HRT-18 cells; details: human, CC50 (μM)
HRT-18 cells = test: Cell viability assay (MTT) in HRT-18 cells
SARS-CoV-2 = test: microbe, parasite or virus in culture; format: cell-based; details: Severe acute respiratory syndrome coronavirus 2, Huh7.5, 48 h; read-out: SARS-CoV-2 EC50
[2] = Cell viability assay (MTT) in Huh7.5 cells; format: cell-based, human; details: human, Huh7.5 cells, Huh7.5 (B), read-out: SARS-CoV-2 CC50
Experimental: Cell viability was monitored by a mitochondrial activity test using methyl-thiazolyl-tetrazolium (MTT, Sigma). After 48 hours of drug treatment, cells were treated with 1 mg/ml of MTT during 3 hours at 37° C. The supernatants were removed and the MTT crystals were dissolved using DMSO and a shaker. The absorbance was read with a Tecan Spark at 570 nm with reference at 650 nm.
Only the most promising molecules or those studied in synergy were tested in Calu3 cells.

[3] = 48 h, drug 2 alone (fast synergy screening table), read-out: IC50
[4] = drug 2 alone (fast synergy screening table), read-out: IC50
[5] = drug alone, HRT-18 cells, MOI 0.025, 48 h treatment, decrease of Rluc, read-out: EC50
[6] = drug 2 alone (fast synergy screening table)
[7] = drug alone, HRT-18 cells, 48 h treatment, MTT

| Compound | EC50 (rHCoVs-OC43; [5]) [µM] | CC50 at 48 h [1, 6] [µM] | CC50 at 48 h [1, 7] [µM] | other results |
| --- | --- | --- | --- | --- |
| C=C1/C(=C\C=C2/CCC[C@]3(C)[C@@H]([C@H](C)CCCC(C)C)CC[C@@H]23)C[C@@H](O)C[C@@H]1O [Alfacalcidol] | 1.7 | > 10 | > 10 | IC50 (rHCoVs-OC43; [3]): 1.7 µM; IC50 (rHCoVs-OC43; [4]): 1.7 µM |
| CCOC(=O)C1=C(COCCN)NC(C)=C(C(=O)OC)C1c1ccccc1Cl (stereo not drawn) [Amlodipine benzenesulphonate] | 5.2 | > 10 | > 10 | IC50 (rHCoVs-OC43; [3]): 5.2 µM; IC50 (rHCoVs-OC43; [4]): 5.2 µM |
| CCN(CC)Cc1cc(Nc2ccnc3cc(Cl)ccc23)ccc1O [Amodiaquine] | 1.2 | > 10 | > 10 | IC50 (rHCoVs-OC43; [3]): 1.2 µM; IC50 (rHCoVs-OC43; [4]): 1.2 µM |
| CCN(CC)CCCC(C)Nc1ccnc2cc(Cl)ccc12 (stereo not drawn) [Chloroquine] | 0.066 |  |  | IC50 (rHCoVs-OC43; [3]): 0.066 µM |
| CN(C)CC/C=C1/c2ccccc2Sc2ccc(Cl)cc21 [Chlorprothixene] | 7.5 |  | > 10 |  |
| CCCC(=O)O[C@]1(C(=O)CCl)[C@H](C)C[C@@H]2[C@@H]3CCC4=CC(=O)C=C[C@]4(C)[C@]3(F)C(=O)C[C@@]21C [Clobetasone butyrate] | 8.5 |  |  | CC50 (HRT-18 cells; [7]): > 10 µM |
| CC(C)/N=c1\cc2n(-c3ccc(Cl)cc3)c3ccccc3nc-2cc1Nc1ccc(Cl)cc1 [Clofazimine] | 1.8 | > 10 | > 10 | IC50 (rHCoVs-OC43; [3]): 1.8 µM; IC50 (rHCoVs-OC43; [4]): 1.8 µM |
| CCN(CC)CCOc1ccc(C(=C(Cl)c2ccccc2)c2ccccc2)cc1 [Clomiphene citrate] |  | > 10 | > 10 |  |
| CN(C)CCCN1c2ccccc2CCc2ccc(Cl)cc21 [Clomipramine hydrochloride] |  |  | > 10 |  |
| C#C[C@]1(O)CC[C@H]2[C@@H]3CCC4=Cc5oncc5C[C@]4(C)[C@H]3CC[C@@]21C [Danazol] | 1 | > 10 | > 10 | IC50 (rHCoVs-OC43; [3]): 1 µM; IC50 (rHCoVs-OC43; [4]): 1 µM; EC50 (SARS-CoV-2): 0.83 µM; CC50 at 48 h [2]: > 10 µM |
| CN(C)[C@@H](CCOc1cccc2ccccc12)c1ccccc1 [Dapoxetine hydrochloride] | 4.7 |  | > 10 |  |
| C[C@H]1O[C@@H](O[C@H]2[C@@H](O)C[C@H](O[C@H]3[C@@H](O)C[C@H](O[C@H]4CC[C@@]5(C)[C@H](CC[C@@H]6[C@@H]5CC[C@]5(C)[C@@H](C7=CC(=O)OC7)CC[C@]65O)C4)O[C@@H]3C)O[C@@H]2C)C[C@H](O)[C@@H]1O [Digitoxin] | 0.021 | 0.08 | 0.08 | IC50 (rHCoVs-OC43; [3]): 0.021 µM |
| C[C@H]1O[C@@H](O[C@H]2[C@@H](O)C[C@H](O[C@H]3[C@@H](O)C[C@H](O[C@H]4CC[C@@]5(C)[C@H](CC[C@@H]6[C@@H]5C[C@@H](O)[C@]5(C)[C@@H](C7=CC(=O)OC7)CC[C@]65O)C4)O[C@@H]3C)O[C@@H]2C)C[C@H](O)[C@@H]1O [Digoxin] | 0.028 |  |  | IC50 (rHCoVs-OC43; 48 h): 0.028 µM |
| OCCN(CCO)c1nc(N2CCCCC2)c2nc(N(CCO)CCO)nc(N3CCCCC3)c2n1 [Dipyridamole] | 4.1 |  | > 10 |  |
| CCN(CC)C(=S)SSC(=S)N(CC)CC [Disulfiram] | 0.18 |  | 0.23 |  |
| COc1cc2nc(N3CCN(C(=O)C4COc5ccccc5O4)CC3)nc(N)c2cc1OC (stereo not drawn) [Doxazosin mesylate] | 3.2 |  | > 10 |  |
| CNCC[C@H](Oc1cccc2ccccc12)c1cccs1 [Duloxetine hydrochloride] |  |  | > 10 | EC50 (rHCoVs-OC43; HRT-18, 48 h): 4.8 µM |
| Cn1cc(C2=C(c3cn(C4CCN(Cc5ccccn5)CC4)c4ccccc34)C(=O)NC2=O)c2ccccc21 [Enzastaurin hydrochloride] | 2.8 |  | > 10 |  |
| CCCCCCCCc1ccc(CCC(N)(CO)CO)cc1 [Fingolimod hydrochloride] | 3.9 | > 10 | 10 | IC50 (rHCoVs-OC43; [3]): 3.9 µM; IC50 (rHCoVs-OC43; [4]): 3.9 µM |
| CCCCCCCCCC(=O)OC1(c2ccc(Cl)cc2)CCN(CCCC(=O)c2ccc(F)cc2)CC1 [Haloperidol decanoate] | > 10 |  | > 10 |  |
| Oc1c(Cl)cc(Cl)c(Cl)c1Cc1c(O)c(Cl)cc(Cl)c1Cl [Hexachlorophene] | 0.39 |  |  | IC50 (rHCoVs-OC43; [3]): 0.39 µM |

| Compound | EC50 (rHCoVs-OC43; [5]) [µM] | CC50 at 48 h [1, 6] [µM] | CC50 at 48 h [1, 7] [µM] | other results |
| --- | --- | --- | --- | --- |
| COC(=O)C1=C(C)NC(C)=C(C(=O)OCCN2CCN(C(c3ccccc3)c3ccccc3)CC2)C1c1cccc([N+](=O)[O-])c1 (stereo not drawn) [Manidipine dihydrochloride] | 4.5 | > 10 | > 10 | IC50 (rHCoVs-OC43; [3]): 4.5 µM; IC50 (rHCoVs-OC43; [4]): 4.5 µM |
| COC(=O)C1=C(C)NC(C)=C(C(=O)OCC(C)C)C1c1ccccc1[N+](=O)[O-] (stereo not drawn) [Nisoldipine] | 2.35 |  | > 10 |  |
| CCCCCCCCCCC[C@@H](C[C@@H]1OC(=O)[C@H]1CCCCCC)OC(=O)[C@H](CC(C)C)NC=O [Orlistat] | 7.3 |  | > 10 |  |
| C[C@@H]1O[C@@H](O[C@H]2C[C@@H](O)[C@]3(CO)[C@H]4[C@H](O)C[C@]5(C)[C@@H](C6=CC(=O)OC6)CC[C@]5(O)[C@@H]4CC[C@]3(O)C2)[C@H](O)[C@H](O)[C@H]1O [Ouabain] | 0.016 | 0.028 | 0.028 | IC50 (rHCoVs-OC43; [3]): 0.016 µM |
| CC(C)COc1ccc(CNC(=O)N(Cc2ccc(F)cc2)C2CCN(C)CC2)cc1 [Pimanavserin] | 6 |  |  | CC50 (HRT-18 cells; [7]): > 10 µM |
| O=C(Nc1ccc(Oc2ccc(Cl)cc2)c(Cl)c1)c1cc(I)cc(I)c1O [Rafoxanide] | 6.9 |  | > 10 |  |
| NC(=O)c1ncn([C@@H]2O[C@H](CO)[C@@H](O)[C@H]2O)n1 [Ribavirin] | 1 | > 10 | > 10 | IC50 (rHCoVs-OC43): 1 µM; IC50 (rHCoVs-OC43; 48 h): 1 µM |
| Cc1cc(/C=C/C#N)cc(C)c1Nc1ccnc(Nc2ccc(C#N)cc2)n1 [Rilpivirine] | > 10 |  | 10 |  |
| Cc1nc2n(c(=O)c1CCN1CCC(c3noc4cc(F)ccc34)CC1)CCCC2 [Risperidone] |  |  | > 10 |  |
| CN[C@H]1CC[C@@H](c2ccc(Cl)c(Cl)c2)c2ccccc21 [Sertraline hydrochloride] |  | > 10 | > 10 |  |
| C=CC[C@@H]1/C=C(\C)C[C@H](C)C[C@H](OC)[C@H]2O[C@@](O)(C(=O)C(=O)N3CCCC[C@H]3C(=O)O[C@H](/C(C)=C/[C@@H]3CC[C@@H](O)[C@H](OC)C3)[C@H](C)[C@@H](O)CC1=O)[C@H](C)C[C@@H]2OC [Tacrolimus hydrate] | 3.3 |  | > 10 |  |
| CC/C(=C(\c1ccccc1)c1ccc(OCCN(C)C)cc1)c1ccccc1 [Tamoxifen] |  |  | > 10 |  |
| CSc1ccc2c(c1)N(CCC1CCCCN1C)c1ccccc1S2 (stereo not drawn) [Thioridazine hydrochloride] |  | > 10 | > 10 |  |
| Clc1ccc(C(Cn2ccnc2)OCc2ccsc2Cl)c(Cl)c1 (stereo not drawn) [Tioconazole] |  |  | > 10 | EC50 (rHCoVs-OC43; HRT-18, 48 h): 4.1 µM |
| CN(C)CCOc1ccc(/C(=C(/CCCl)c2ccccc2)c2ccccc2)cc1 [Toremifene Citrate] | 2.6 | > 10 | > 10 | IC50 (rHCoVs-OC43; 48 h): 2.6 µM |
| Cc1ccc(Sc2ccccc2N2CCNCC2)c(C)c1 [Vortioxetine hydrobromide] | 2.4 |  | > 10 |  |
| Cc1ccc(Sc2ccccc2N2CCNCC2)c(C)c1 [Vortioxetine] |  | > 10 |  | IC50 (rHCoVs-OC43; [3]): 2.4 µM; IC50 (rHCoVs-OC43; [4]): 2.4 µM |
| CN(C)CCCN1c2ccccc2Sc2ccc(Cl)cc21 [chlorpromazine] | 5.1 |  | > 10 |  |
| Benproperine phosphate | 5.6 |  |  | CC50 (HRT-18 cells; [7]): > 10 µM |
| Monesin sodium sulfate | 0.029 |  |  | IC50 (rHCoVs-OC43; [4]): 0.029 µM; CC50 (HRT-18 cells; [6]): 0.9 µM; CC50 (HRT-18 cells; [7]): 0.9 µM |
